# In DBAASP:
# Legend:
# [1] = tested on: Escherichia coli ATCC 25922; experiment: ≥ marks a high value that may be exact or a test limit, other limits are often not marked, values filed in µg/mL are converted to µM
# [2] = tested on: Staphylococcus aureus ATCC 25923; experiment: as above
Compound,MIC [1],MIC [2]
CC(C)C[C@H](NC(=O)[C@H](CCC(N)=O)NC(=O)[C@H](CCCCN)NC(=O)[C@H](CCCN=C(N)N)NC(=O)[C@@H]1CCCN1C(=O)[C@H](C)N)C(=O)N[C@@H](CCCCN)C(=O)N[C@@H](Cc1c[nH]c2ccccc12)C(=O)O [APRKQLKW],7.8 µM,–
NC(=O)[C@H](Cc1c[nH]c2ccccc12)NC(=O)[C@H](CCCN=C(N)N)NC(=O)[C@H](CCCN=C(N)N)NC(=O)[C@H](CCCN=C(N)N)NC(=O)[C@H](Cc1c[nH]c2ccccc12)NC(=O)[C@@H](N)Cc1c[nH]c2ccccc12 [WWRRRW],23.9 µM,9.57 µM
CC(C)C[C@H](NC(=O)[C@H](CC(C)C)NC(=O)[C@H](CC(C)C)NC(=O)[C@@H]1CCCN1C(=O)[C@H](CC(C)C)NC(=O)[C@@H](N)Cc1ccccc1)C(=O)N[C@@H](C)C(=O)NCC(=O)N[C@@H](CC(C)C)C(=O)N1CCC[C@H]1C(=O)N[C@@H](CCCCN)C(=O)N[C@@H](CC(C)C)C(=O)N[C@@H](CC(C)C)C(=O)N[C@H]1CSSC[C@@H](C(=O)O)NC(=O)[C@H](CCCCN)NC(=O)[C@H](CCCCN)NC(=O)[C@H](Cc2ccccc2)NC(=O)[C@H](Cc2ccccc2)NC(=O)[C@H](CC(C)C)NC1=O [FLPLLLAGLPKLLCLFFKKC],15 µM,15 µM
CC[C@H](C)[C@H](NC(=O)[C@H](CCCN=C(N)N)NC(=O)[C@H](CCCCN)NC(=O)[C@H](CC(C)C)NC(=O)[C@H](CC(C)C)NC(=O)CN)C(=O)N[C@@H](CCCCN)C(=O)N[C@@H](Cc1c[nH]c2ccccc12)C(=O)N[C@@H](CC(C)C)C(=O)N[C@@H](CC(C)C)C(N)=O [GLLKRIKWLL],1.61 µM,3.23 µM
CC(C)C[C@H](NC(=O)[C@H](Cc1ccccc1)NC(=O)[C@@H]1CCCN1C(=O)[C@H](Cc1c[nH]c2ccccc12)NC(=O)[C@H](Cc1c[nH]c2ccccc12)NC(=O)[C@H](Cc1ccc(O)cc1)NC(=O)[C@@H]1CCCN1C(=O)[C@H](Cc1ccccc1)NC(=O)[C@H](CCCN=C(N)N)NC(=O)[C@H](CCCN=C(N)N)NC(=O)[C@@H](N)C(C)C)C(=O)N[C@@H](CCCN=C(N)N)C(=O)N[C@@H](CCCN=C(N)N)C(N)=O [VRRFPYWWPFLRR],16 µM,–
CC[C@H](C)[C@H](NC(=O)[C@H](CCC(=O)O)NC(=O)[C@H](C)NC(=O)[C@@H](NC(=O)[C@H](CCCCN)NC(=O)[C@H](CCCCN)NC(=O)CN)[C@@H](C)O)C(=O)N[C@@H](CCC(=O)O)C(=O)N[C@@H](CCCCN)C(=O)O [GKKTAEIEK],2490 µM,1250 µM
CC[C@H](C)[C@H](NC(=O)[C@H](CCCN=C(N)N)NC(=O)[C@H](CCCCN)NC(=O)[C@H](CC(C)C)NC(=O)[C@H](CC(C)C)NC(=O)CN)C(=O)N[C@@H](CCCCN)C(=O)N[C@H](C(=O)N[C@@H](CC(C)C)C(=O)N[C@@H](CC(C)C)C(N)=O)C(C)C [GLLKRIKVLL],19.1 µM,19.1 µM
CC[C@H](C)[C@H](NC(=O)[C@H](CCCCN)NC(=O)[C@H](CC(C)C)NC(=O)[C@H](CC(C)C)NC(=O)CN)C(=O)N[C@H](C(=O)N[C@@H](CCCCN)C(=O)N[C@H](C(=O)N[C@@H](CC(C)C)C(=O)N[C@@H](CC(C)C)C(N)=O)[C@@H](C)O)[C@@H](C)CC [GLLKIIKTLL],1.8 µM,1.8 µM
CC(C)[C@@H]1NC(=O)CNC(=O)[C@H](CCCN=C(N)N)NC(=O)[C@H](CCCN=C(N)N)NC(=O)[C@@H]2CSSC[C@H](NC1=O)C(=O)N[C@@H](CCCN=C(N)N)C(=O)N[C@H]1CSSC[C@H](NC(=O)[C@H](CCCN=C(N)N)NC(=O)[C@@H](NC(=O)[C@@H](NC(=O)CN)C(C)C)CSSC[C@@H](C(=O)N[C@@H](CCCN=C(N)N)C(=O)N[C@@H](CCCN=C(N)N)C(=O)O)NC(=O)[C@H](C(C)C)NC1=O)C(=O)N[C@@H](C(C)C)C(=O)N2 [GVCRCVCRRGVCRCVCRR],32 µM,> 32 µM
CSCC[C@H](NC(=O)[C@H](Cc1c[nH]c2ccccc12)NC(=O)[C@H](CC(C)C)NC(=O)[C@H](C)N)C(=O)N[C@H](C(=O)N[C@@H](CC(C)C)C(=O)N[C@@H](CC(C)C)C(=O)N[C@@H](CCCCN)C(=O)N[C@@H](CCCCN)C(=O)N[C@H](C(=O)N[C@@H](CC(C)C)C(=O)N[C@@H](CCCCN)C(=O)N[C@@H](C)C(N)=O)C(C)C)[C@@H](C)O [ALWMTLLKKVLKA],25 µM,6 µM
CC[C@H](C)[C@H](NC(=O)CN)C(=O)N[C@@H](CCSC)C(=O)N[C@@H](CC(=O)O)C(=O)N[C@H](C(=O)N[C@H](C(=O)N[C@@H](CCCCN)C(=O)N[C@@H](CC(N)=O)C(=O)N[C@@H](C)C(=O)N[C@@H](C)C(=O)N[C@@H](CCCCN)C(=O)N[C@@H](CC(=O)O)C(=O)N[C@@H](CC(C)C)C(=O)N[C@@H](C)C(=O)NCC(=O)N[C@@H](CCC(N)=O)C(=O)N[C@@H](CC(C)C)C(=O)N[C@@H](CC(C)C)C(=O)N[C@@H](CC(=O)O)C(=O)N[C@@H](CCCCN)C(=O)N[C@@H](CC(C)C)C(=O)N[C@@H](CCCCN)C(=O)N[C@H]1CSSC[C@@H](C(=O)O)NC(=O)CNC(=O)[C@H]([C@@H](C)O)NC(=O)[C@H]([C@@H](C)CC)NC(=O)[C@H](CCCN=C(N)N)NC1=O)C(C)C)[C@@H](C)O [GIMDTVKNAAKDLAGQLLDKLKCRITGC],3 µM,–
CC[C@H](C)[C@H](NC(=O)[C@H](CCCN=C(N)N)NC(=O)[C@H](CCCCN)NC(=O)[C@H](CCSC)NC(=O)[C@H](CC(C)C)NC(=O)CN)C(=O)N[C@@H](CCCCN)C(=O)N[C@H](C(=O)N[C@@H](CCSC)C(=O)N[C@@H](CC(C)C)C(N)=O)[C@@H](C)O [GLMKRIKTML],> 200 µM,–
CC[C@H](C)[C@H](NC(=O)[C@H](CCCN=C(N)N)NC(=O)[C@H](CCCCN)NC(=O)[C@H](CC(C)C)NC(=O)[C@H](CC(C)C)NC(=O)[C@@H](N)CCCCN)C(=O)N[C@@H](CCCCN)C(=O)N[C@@H](CCCCN)C(=O)N[C@@H](CC(C)C)C(=O)N[C@@H](CC(C)C)C(N)=O [KLLKRIKKLL],29.5 µM,22.4 µM
NC(=O)[C@H](CCCN=C(N)N)NC(=O)[C@H](Cc1c[nH]c2ccccc12)NC(=O)[C@H](Cc1c[nH]c2ccccc12)NC(=O)[C@@H](N)CCCN=C(N)N [RWWR],> 285 µM,142 µM
CC[C@H](C)[C@H](NC(=O)[C@H](Cc1ccccc1)NC(=O)CN)C(=O)N[C@@H](CO)C(=O)N[C@H](C(=O)N[C@H](C(=O)N[C@@H](CCCCN)C(=O)N[C@@H](CC(N)=O)C(=O)N[C@@H](CC(C)C)C(=O)N[C@@H](C)C(=O)N[C@H](C(=O)N[C@@H](CC(N)=O)C(=O)N[C@H](C(=O)N[C@@H](C)C(=O)NCC(=O)N[C@H](C(=O)N[C@H](C(=O)N[C@H](C(=O)N[C@@H](CC(=O)O)C(=O)N[C@H](C(=O)N[C@H](C(=O)N[C@@H](CCCCN)C(=O)N[C@H]1CSSC[C@@H](C(=O)O)NC(=O)CNC(=O)CNC(=O)[C@H]([C@@H](C)O)NC(=O)[C@H](C(C)C)NC(=O)[C@H](CCCCN)NC1=O)[C@@H](C)CC)[C@@H](C)O)[C@@H](C)CC)C(C)C)[C@@H](C)O)C(C)C)[C@@H](C)O)C(C)C)[C@@H](C)O [GFISTVKNLATNVAGTVIDTIKCKVTGGC],110 µM,–
